Data as given in US20220281886A1, “NATRIURETIC PEPTIDE RECEPTOR A AGONISTS USEFUL FOR THE TREATMENT OF CARDIOMETABOLIC DISEASES, KIDNEY DISEASE AND DIABETES” (Merck Sharp & Dohme Corp., priority 2019, published 2022).
Values belong to the molecule of their own block, whether it stands above or below them.

Molecular target: T1, hNPRA (Homo sapiens, UniProt P16066)
T1 construct: expressed in transfected cells
T1 sequence (P16066 33-1061): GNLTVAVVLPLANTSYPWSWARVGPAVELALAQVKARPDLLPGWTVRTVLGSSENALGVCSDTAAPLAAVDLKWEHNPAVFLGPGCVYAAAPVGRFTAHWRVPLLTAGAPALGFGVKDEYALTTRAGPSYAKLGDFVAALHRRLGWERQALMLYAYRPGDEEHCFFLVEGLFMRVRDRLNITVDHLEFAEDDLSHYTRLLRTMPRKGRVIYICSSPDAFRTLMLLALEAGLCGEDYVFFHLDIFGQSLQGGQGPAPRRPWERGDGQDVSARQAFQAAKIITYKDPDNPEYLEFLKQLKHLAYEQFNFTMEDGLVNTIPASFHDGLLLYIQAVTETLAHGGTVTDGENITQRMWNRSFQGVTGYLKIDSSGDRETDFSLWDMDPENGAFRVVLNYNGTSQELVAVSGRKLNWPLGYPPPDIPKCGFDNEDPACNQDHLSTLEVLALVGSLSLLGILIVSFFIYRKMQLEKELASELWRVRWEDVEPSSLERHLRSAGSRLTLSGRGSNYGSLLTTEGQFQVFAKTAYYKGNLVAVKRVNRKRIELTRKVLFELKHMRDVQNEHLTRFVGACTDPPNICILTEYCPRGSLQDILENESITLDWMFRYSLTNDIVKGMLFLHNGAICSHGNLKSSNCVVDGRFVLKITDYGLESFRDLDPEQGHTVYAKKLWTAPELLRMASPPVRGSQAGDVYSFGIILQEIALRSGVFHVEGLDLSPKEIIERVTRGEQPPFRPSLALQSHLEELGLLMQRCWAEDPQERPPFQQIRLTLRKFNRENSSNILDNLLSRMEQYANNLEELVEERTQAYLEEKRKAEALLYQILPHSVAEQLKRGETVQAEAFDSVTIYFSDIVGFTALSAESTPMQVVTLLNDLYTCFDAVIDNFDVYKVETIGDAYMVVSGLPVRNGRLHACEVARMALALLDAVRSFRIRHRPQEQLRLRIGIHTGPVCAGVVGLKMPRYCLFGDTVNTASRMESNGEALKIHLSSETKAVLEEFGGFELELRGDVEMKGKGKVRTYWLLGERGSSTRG
Assay: NPRA Functional Cell Assay (cGMP HTRF)
Assay type: cell-based
Conditions: Human NPRA HEK JumpIn stable cells; cGMP by HTRF after 1 hour at 37° C.; 10-point dose response
Summary of the method: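 HEK JumpIn cells stably expressing human, rat or dog NPRA incubated 1 hour at 37° C with compound (10-point titration) in Opti-MEM buffer with 100 uM IBMX and 100 uM RO20. cGMP measured by HTRF against an on-plate calibration curve; EC50 from 4-parameter fit, positive control 10 nM rat-ANP (rat) or 50 nM h-ANP (human, dog).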

Compound: CC(C)[C@]1(F)CCc2nc3c(F)cc(C(=O)N[C@H](CCN4CC(O)C4)c4ccc(-c5ccnnc5)nc4)cc3cc2C1 (racemic) [Example 63, rac-(7S)-4,7-difluoro-7-isopropyl-N-[rac-(1R)-3-(3-hydroxyazetidin-1-ium-1-yl)-1-(6-pyridazin-4-yl-3-pyridyl)propyl]-6,8-dihydro-5H-acridine-2-carboxamide;2,2,2-trifluoroacetate]
- EC50: 1.19 µM

Compound: CC(C)[C@]1(F)CCc2nc3c(F)cc(C(=O)N[C@H](CCN4CCC5(O)CCCCC5C4)c4ccc(-c5ccnnc5)nc4)cc3cc2C1 (stereo partly drawn) [Example 15, (7S)-4,7-difluoro-N-[(1R)-3-(4a-hydroxyoctahydroisoquinolin-2(1H)-yl)-1-(6-pyridazin-4-ylpyridin-3-yl)propyl]-7-(1-methylethyl)-5,6,7,8-tetrahydroacridine-2-carboxamide]
- EC50: 0.257 µM

Compound: CC(C)[C@]1(F)CCc2nc3c(F)cc(C(=O)N[C@H](CCN4CCC[C@H](O)C4)c4ccc(-c5ccnnc5)nc4)cc3cc2C1 (racemic) [Example 36, rac-(7S)-4,7-difluoro-7-isopropyl-N-[rac-(1R)-1-(6-pyridazin-4-yl-3-pyridyl)-3-[rac-(3S)-3-hydroxypiperidin-1-ium-1-yl]propyl]-6,8-dihydro-5H-acridine-2-carboxamide;2,2,2-trifluoroacetate]
- EC50: 0.26 µM

Compound: COCCCC1CCN(CC[C@@H](NC(=O)c2cc(F)c3nc4c(cc3c2)C[C@](F)(C(C)C)CC4)c2ccc(-c3ccnnc3)nc2)CC1 (racemic) [Example 51, rac-(7S)-4,7-difluoro-7-isopropyl-N-[rac-(1R)-3-[4-(3-methoxypropyl)-1-piperidyl]-1-(6-pyridazin-4-yl-3-pyridyl)propyl]-6,8-dihydro-5H-acridine-2-carboxamide]
- EC50: 0.175 µM

Compound: CC(C)[C@]1(F)CCc2nc3c(F)cc(C(=O)N[C@H](CCN4CCCC4)c4ccc(-c5ccnnc5)nc4)cc3cc2C1 (racemic) [Example 35, rac-(7S)-4,7-difluoro-7-isopropyl-N-[rac-(1R)-1-(6-pyridazin-4-yl-3-pyridyl)-3-pyrrolidin-1-ium-1-yl-propyl]-6,8-dihydro-5H-acridine-2-carboxamide;2,2,2-trifluoroacetate]
- EC50: 0.285 µM

Compound: CC(C)[C@]1(F)CCc2nc3c(F)cc(C(=O)N[C@H](CCN4CCC(O)CC4(C)C)c4ccc(-c5ccnnc5)nc4)cc3cc2C1 (stereo partly drawn) [Example 11, (7S)-4,7-difluoro-N-[(1R)-3-(4-hydroxy-2,2-dimethylpiperidin-1-yl)-1-(6-pyridazin-4-ylpyridin-3-yl)propyl]-7-(1-methylethyl)-5,6,7,8-tetrahydroacridine-2-carboxamide]
- EC50: 0.219 µM

Compound: CC(C)[C@]1(F)CCc2nc3c(F)cc(C(=O)N[C@H](CCN4CCC(CO)CC4)c4ccc(-c5ccnnc5)nc4)cc3cc2C1 (racemic) [Example 45, rac-(7S)-4,7-difluoro-7-isopropyl-N-[rac-(1R)-3-[4-(hydroxymethyl)piperidin-1-ium-1-yl]-1-(6-pyridazin-4-yl-3-pyridyl)propyl]-6,8-dihydro-5H-acridine-2-carboxamide;2,2,2-trifluoroacetate]
- EC50: 0.136 µM

Compound: CC(C)[C@]1(F)CCc2nc3c(F)cc(C(=O)N[C@H](CCN4CCC5(CCO5)CC4)c4ccc(-c5ccnnc5)nc4)cc3cc2C1 [Example 17, (7S)-4,7-difluoro-7-(1-methylethyl)-N-[(1R)-3-(1-oxa-7-azaspiro[3.5]non-7-yl)-1-(6-pyridazin-4-ylpyridin-3-yl)propyl]-5,6,7,8-tetrahydroacridine-2-carboxamide]
- EC50: 0.217 µM

Compound: CC(C)[C@]1(F)CCc2nc3c(F)cc(C(=O)N[C@H](CCN4CCC5(CC4)COC5)c4ccc(-c5ccnnc5)nc4)cc3cc2C1 (racemic) [Example 50, rac-(7S)-4,7-difluoro-7-isopropyl-N-[rac-(1R)-3-(2-oxa-7-azaspiro[3.5]nonan-7-yl)-1-(6-pyridazin-4-yl-3-pyridyl)propyl]-6,8-dihydro-5H-acridine-2-carboxamide]
- EC50: 0.24 µM

Compound: CC(O)C1CCN(CC[C@@H](NC(=O)c2cc(F)c3nc4c(cc3c2)C[C@](F)(C(C)C)CC4)c2ccc(-c3ccnnc3)nc2)CC1 (mixture of isomers) [Example 41, rac-(7S)-4,7-difluoro-7-isopropyl-N-[rac-(1R)-3-[4-(1-hydroxyethyl)piperidin-1-ium-1-yl]-1-(6-pyridazin-4-yl-3-pyridyl)propyl]-6,8-dihydro-5H-acridine-2-carboxamide;2,2,2-trifluoroacetate]
- EC50: 0.236 µM

Second part, the molecule after the results:

- EC50: 0.378 µM
Compound: CN(C)CC[C@@H](NC(=O)c1ccc2nc3c(cc2c1)C[C@@H](C1(C)CC1)CC3)c1cccc(C(=O)NC2CN(C)C2)c1 (racemic) [Example 67, rac-(7S)-7-(1-methylcyclopropyl)-N-[rac-(1R)-3-(dimethylamino)-1-[3-[(1-methylazetidin-3-yl)carbamoyl]phenyl]propyl]-5,6,7,8-tetrahydroacridine-2-carboxamide]

- EC50: 0.369 µM
Compound: CN1CC(NC(=O)c2cccc([C@@H](CCN3CCC(O)CC3)NC(=O)c3ccc4nc5c(cc4c3)C[C@@H](C3(C)CC3)CC5)c2)C1 (racemic) [Example 68, rac-(7S)-7-(1-methylcyclopropyl)-N-[rac-(1R)-3-(4-hydroxy-1-piperidyl)-1-[3-[(1-methylazetidin-1-ium-3-yl)carbamoyl]phenyl]propyl]-5,6,7,8-tetrahydroacridine-2-carboxamide;2,2,2-trifluoroacetate]

- EC50: 0.359 µM
Compound: COC(=O)CC1CCN(CC[C@@H](NC(=O)c2ccc3nc4c(cc3c2)C[C@@H](C2(C)CC2)CC4)c2cccc(C(=O)NC3CN(C)C3)c2)CC1 (racemic) [Example 65, methyl 2-[1-[rac-(3R)-3-[(1-methylazetidin-3-yl)carbamoyl]phenyl]-3-[[rac-(7S)-7-(1-methylcyclopropyl)-5,6,7,8-tetrahydroacridine-2-carbonyl]amino]propyl]-4-piperidyl]acetate]

- EC50: 0.0911 µM
Compound: CC(C)[C@]1(F)CCc2nc3c(F)cc(C(=O)N[C@H](CCN4CCC(C(O)C5(CO)CC5)CC4)c4ccc(-c5ccnnc5)nc4)cc3cc2C1 (mixture of isomers) [Example 54, rac-(7S)-4,7-difluoro-7-isopropyl-N-[rac-(1R)-3-[4-[hydroxy-[1-(hydroxymethyl)cyclopropyl]methyl]-1-piperidyl]-1-(6-pyridazin-4-yl-3-pyridyl)propyl]-6,8-dihydro-5H-acridine-2-carboxamide]

- EC50: 0.125 µM
Compound: CC(C)[C@]1(F)CCc2nc3c(F)cc(C(=O)N[C@H](CCN4CCC(O)CC4)c4cnc(-c5ccnnc5)c(F)c4)cc3cc2C1 [Example 20, (7S)-4,7-difluoro-N-[(1R)-1-(5-fluoro-6-pyridazin-4-ylpyridin-3-yl)-3-(4-hydroxypiperidin-1-yl)propyl]-7-(1-methylethyl)-5,6,7,8-tetrahydroacridine-2-carboxamide]

- EC50: 0.278 µM
Compound: CN1CC(NC(=O)c2cccc([C@@H](CCN3CCC[C@H]3CO)NC(=O)c3ccc4nc5c(cc4c3)C[C@@H](C3(C(F)(F)F)CC3)CC5)c2)C1 [Example 22, (S)-N-((R)-3-((S)-2-(hydroxymethyl)pyrrolidin-1-yl)-1-(3-((1-methylazetidin-3-yl)carbamoyl)phenyl)propyl)-7-(1-(trifluoromethyl)cyclopropyl)-5,6,7,8-tetrahydroacridine-2-carboxamide]

- EC50: 0.112 µM
Compound: CC(C)[C@]1(F)CCc2nc3c(F)cc(C(=O)N[C@H](CCN4CCC(O)CC4)c4ccc(-c5ccnnc5)nc4)cc3cc2C1 [Example 10, (7S)-4,7-difluoro-N-[(1R)-3-(4-hydroxypiperidin-1-yl)-1-(6-pyridazin-4-ylpyridin-3-yl)propyl]-7-(1-methylethyl)-5,6,7,8-tetrahydroacridine-2-carboxamide]

- EC50: 0.114 µM
Compound: CC(C)[C@]1(F)CCc2nc3c(F)cc(C(=O)N[C@H](CCN4CCC(O)CC4)c4ccc(N5CCOC5=O)cc4)cc3cc2C1 [Example 6, (7S)-4,7-difluoro-N-{(1R)-3-(4-hydroxypiperidin-1-yl)-1-[4-(2-oxo-1,3-oxazolidin-3-yl)phenyl]propyl}-7-(1-methylethyl)-5,6,7,8-tetrahydroacridine-2-carboxamide]

- EC50: 1.72 µM
Compound: CC1([C@H]2CCc3nc4ccc(C(=O)N[C@H](CCN5CCC[C@H]5CO)c5ccc(N6CCOC6=O)cc5)cc4cc3C2)CC1 [Example 2, (S)-N-((R)-3-((S)-2-(hydroxymethyl)pyrrolidin-1-yl)-1-(4-(2-oxooxazolidin-3-yl)phenyl)propyl)-7-(1-methylcyclopropyl)-5,6,7,8-tetrahydroacridine-2-carboxamide]
